US20140163095A1, “USE OF ERIBULIN IN THE TREATMENT OF BREAST CANCER” (priority 2012, published 2014)

Tested on: locally advanced or metastatic breast cancer
Assay: Phase III clinical trial comparing eribulin mesylate and capecitabine
[1] = of patients with any new metastasis

Experimental: A global, randomized, open-label, two-parallel-arm, phase III clinical trial of eribulin (eribulin mesylate) and capecitabine was performed.
This study randomized 1102 patients who had up to three prior chemotherapy regimens, and no more than two prior regimens for advanced and/or metastatic disease. The prior regimens must have included an anthracycline and a taxane, either in the (neo) adjuvant setting or for locally advanced or metastatic disease. Patients must have had documented evidence of progression during or after their most recent anti-cancer therapy. […] Patients were randomized to receive either eribulin mesylate as an intravenous (IV) infusion of 1.4 mg/m^2 over 2-5 minutes on days 1 and 8 every 21 days or capecitabine as an oral administration of 2.5 g/m^2/day administered twice daily in two equal doses on days 1 to 14 every 21 days.
This study was designed to have co-primary endpoints, overall survival (OS) and progression free survival (PFS), with alpha spending 0.04 and 0.01, respectively.
Progression events (disease progression determined by Response Evaluation Criteria in Solid Tumors [RECIST, version 1.0]) were categorized as: (i) emergence of a new lesion/metastasis, defined here as a lesion identified at progression that had not been previously reported, (ii) increase in size of an existing (previously reported) lesion (target or non-target), and (iii) other PFS event, e.g., death, clinical progression, or censoring. Investigator review of disease progression was used as the primary analysis for these investigations. Where progression was determined by investigator review, no further scans were performed, leading to informative censoring of independent review data (approximately 20%). The number of new metastases observed by independent review was considered an under-estimate due to this considerable informative censoring. OS and PFS were compared between treatment arms using two-sided, stratified (geographic region and HER2 status) log-rank tests. The correlation between progression events and OS was investigated by Cox regression, incorporating the event as a time-dependent covariate. New metastasis-free survival, defined as time from randomization to death or progression due to appearance of a new metastasis (whichever occurs earlier), was also analyzed.

SMILES: CCCCCOC(=O)Nc1nc(=O)n([C@@H]2O[C@H](C)[C@@H](O)[C@H]2O)cc1F [Capecitabine, reference compound]
- median overall survival (OS) (all randomized patients): 14.5 months
- median progression-free survival (PFS) (all randomized patients): 4.2 months
- New metastasis site: Bone, patients (count): 62
- New metastasis site: Breast, patients (count): 13
- New metastasis site: CNS (brain/spine), patients (count): 25
- New metastasis site: Chest wall, patients (count): 5
- New metastasis site: Liver, patients (count): 74
- New metastasis site: Lung, patients (count): 76
- New metastasis site: Lymph nodes, patients (count): 55
- New metastasis site: Other, patients (count): 53
- New metastasis site: Skin, patients (count): 26
- Number of patients with any new metastasis observed (count, investigator review, intent-to-treat): 316
- patients with progression due to a new metastasis (investigator review): 52.0%
- patients with progression due to increase in the size of a pre-existing lesion (investigator review): 23.5%
- patients with progression due to other reasons such as death and clinical progression (investigator review): 24.5%
- patients with any new metastasis observed, percentage (investigator review, intent-to-treat): (57.7) %
- New metastasis site: Bone, percentage [1]: (19.6) %
- New metastasis site: Breast, percentage [1]: (4.1) %
- New metastasis site: CNS (brain/spine), percentage [1]: (7.9) %
- New metastasis site: Chest wall, percentage [1]: (1.6) %
- New metastasis site: Liver, percentage [1]: (23.4) %
- New metastasis site: Lung, percentage [1]: (24.1) %
- New metastasis site: Lymph nodes, percentage [1]: (17.4) %
- New metastasis site: Other, percentage [1]: (16.8) %
- New metastasis site: Skin, percentage [1]: (8.2) %
- Median OS (patients whose disease progressed due to other events): 15.5 months
- Median OS (patients with progression due to new metastasis): 12.9 months
- Median OS (patients with progression due to pre-existing lesion): 17.4 months
